Source: article PMC8443647, “Hybrid derivative of cathelicidin and human beta defensin-2 against Gram-positive bacteria: A novel approach for the treatment of bacterial keratitis” (Scientific Reports, 2021)
In brackets after ≈: the same amount, converted by molar mass. Several values for one entry are separate records, joined by “and”; a condition that tells them apart may be missing. Equal entries are not always repeated. Where two headings read alike, the source gives them in different places. Peptide text beside a SMILES is read from it.

Key:
[1] = system: human corneal epithelial cells (HCE-2); test: cells; assay type: cell-based; settings: Homo sapiens, Corneal epithelial cell, 3 h, read-out: IC50 (concentration causing 50% inhibition of cell viability)
Protocol: (§1) Cell viability and cytotoxicity of antibiotics and peptides were determined against human corneal epithelial cells (HCE-2, CRL-11135, ATCC, Manassas, Virginia, USA) using cell-counting-kit-8 (CCK-8) assay (Sigma Aldrich, Merck Life Science UK Limited, Dorset, UK) and lactate dehydrogenase (LDH) assay (ThermoFisher Scientific, UK), respectively, as per manufacturer’s guidelines. HCE-2 cells were cultured and seeded into a 96-well plate at a density of 7.5 × 10^3 cells/well and allowed to attach overnight and grew to 80–90% confluency in keratinocyte serum free medium (KSFM) supplemented with human recombinant epidermal growth factor, bovine pituitary extract, hydrocortisone, and insulin. Once the confluency reached 80–90%, the cells were incubated with treatment for 3 h before OD450 measurement was taken using BMG Clariostar microplate reader (BMG Labtech Ltd., Aylesbury, UK). Appropriate controls were used, including 0.1% Triton X-100 as positive control and KSFM as negative control. Cell viability was calculated using the following formula: [([…]) × 100; I = intensity] and cytotoxicity was calculated using the following formula: [((Itreatment – INC)/(IPC – INC)) × 100].

[2] = system: fresh human erythrocytes; test: Hemolytic assay; assay type: cell-based; settings: 1 h
Protocol: (§2) Ethical approval was obtained from the Local Research Ethics Committee of University of Nottingham prior to the experiment (Ref: 176-1812). The experiment was conducted in accordance with the relevant guidelines and regulations. Hemolytic assay was performed according to the previously established protocol. Briefly, 5 ml of fresh human blood was collected from healthy participants with written informed consent, in an EDTA tube and centrifuged for 10 min at 1300g at 10 °C for separation of plasma. The remaining erythrocytes were rinsed and centrifuged further three times in Ca^2+/Mg^2+ free Dulbecco’s phosphate-buffered saline (DPBS). Subsequently, erythrocytes were diluted to 8% v/v in DPBS and incubated with 100 μl of treatment, positive control (1% Triton X-100) and negative control (DPBS), all in 1:1 ratio, for 1 h (final erythrocytes concentration = 4% v/v). After 1 h of incubation, the plate was centrifuged at 500×g for 5 min and 100 μl of supernatant of each well was transferred into a 96-well plate for measurement at OD540. Hemolysis (%) was calculated as [(Itreatment – INC)/(IPC – INC)] × 100.

[3] = Hemolytic assay; assay type: cell-based; settings: human
Protocol: as §2

[4] = system: S. aureus SH1000; test: microbe, parasite or virus in culture; assay type: cell-based, Staphylococcus aureus; settings: Staphylococcus aureus, SH1000, 24 h, caMHB, 24 h, read-out: MIC
Text: (§3) A range of Gram-positive and Gram-negative laboratory- and clinical-strain bacteria were used for the experiments. These included laboratory-strain methicillin-sensitive S. aureus (MSSA; including SH1000 and ATCC SA29213), laboratory-strain MRSA (ATCC MRSA43300), clinical-strain MRSA (MRSA-OS; an IK isolate), laboratory-strain methicillin-sensitive Staphylococcus epidermidis (MSSE; ATCC SE12228), laboratory invasive-strain P. aeruginosa (PAO1-L), and clinical cytotoxic-strain P. aeruginosa (PA-OS; an IK isolate).
(§4) In vitro antimicrobial efficacy of the antibiotics and designed HDPs was determined using an established MIC assay with broth microdilution method approved by the Clinical and Laboratory Standards Institute (CLSI)[64]. Briefly, the microorganisms were cultured on Tryptone Soya Agar (TSA) and incubated overnight for 18–21 h at 37 °C. Bacterial inoculums were subsequently prepared using the direct colony suspension method. Three to five bacterial colonies were obtained from the agar plate and inoculated into an Eppendorf tube containing 1 ml of cation-adjusted Muller-Hinton broth (caMHB), consisting of 20–25 mg/L calcium ions (Ca^2+) and 10–12.5 mg/L magnesium ions (Mg^2+). The bacterial suspension was adjusted to achieve a turbidity equivalent to 0.1 OD600 or 0.5 MacFarland, containing ~ 1.5 × 10^8 colony-forming unit (CFU)/ml, which was then further diluted in 1:150 in caMHB to reach a final bacterial concentration of ~ 1 × 10^6 colony forming units (CFU)/ml. Each treatment (peptide or antibiotic) was prepared in 1:2 serial dilution in 96-well polypropylene microplates (with a final treatment volume of 50 μl per well), followed by the addition of 50 μl of 1 × 10^6 CFU/ml bacteria into each well (with a final bacterial concentration of 5 × 10^5 CFU/ml).

[5] = system: MRSA-OS; test: microbe, parasite or virus in culture; assay type: cell-based, Staphylococcus aureus; settings: 24 h
Text: as §3, §4

[6] = system: human corneal epithelial cells (HCE-2); test: in vitro; assay type: cell-based; settings: human, 3 h, 200 µg/ml
Protocol: as §1

[7] = in vitro; assay type: cell-based, human; settings: human
Protocol: as §1

[8] = system: P. aeruginosa PA-OS; test: microbe, parasite or virus in culture; assay type: cell-based; settings: 24 h
Text: as §3, §4

[9] = system: P. aeruginosa PAO1-L; test: microbe, parasite or virus in culture; assay type: cell-based; settings: Pseudomonas aeruginosa, PAO1, 24 h, caMHB, 24 h, read-out: MIC
Text: as §3, §4

[10] = system: S. aureus ATCC SA29213; test: Multipassage antimicrobial resistance (AMR) assay; assay type: cell-based, Staphylococcus aureus
Protocol: Multipassage AMR assays were performed to evaluate the risk of development of AMR of S. aureus (ATCC SA29213) against CaD23 and amikacin over 10 consecutive passages (days). The assay was conducted in a similar manner of the MIC assay described above. […] This was then further diluted in 1:150 in caMHB to reach a final bacterial concentration of ~ 1 × 10^6 colony forming units (CFU)/ml. […] Development of AMR was defined as ≥ fourfold increase in the MIC level compared to the baseline.

[11] = system: S. aureus (SH1000); test: Time-kill kinetics assay; assay type: cell-based, Staphylococcus aureus
Protocol: Time-kill kinetics assay was performed to determine the time-dependent and concentration-dependent in vitro antimicrobial effects of the CaD23 and amikacin, a commonly used topical antibiotics for BK, against 100 μl of ~ 1 × 10^6 CFU/ml of SH1000 (1:1 treatment-bacteria ratio) at various time points, including 0 min (pre-treatment), 15 min, 30 min, 60 min, 2 h, 4 h, and 24 h. At each time point, 10 μl of the treated bacteria was transferred to an Eppendorf tube containing 90 μl of PBS, which was then serially diluted in 1:10 concentration for inoculation on agar plates and incubated overnight for 18–21 h at 37 °C for enumeration of CFU.

[12] = system: corneal epithelial wound; settings: mouse, in vivo
Protocol: The in vivo studies were conducted in two stages, namely the corneal wound healing study (for safety) and BK study (for efficacy), based on previously established protocols[54],[65]. […] The mice were maintained and treated in compliance with the Guide for the Care and Use of Laboratory Animals (National Research Council) and the ARVO statement for the Use of Animals in Ophthalmic and Vision Research. […]
In vivo safety of CaD23 (in 0.03%, 0.05% or 0.1%), and PBS (negative control) was first determined in a mouse corneal epithelial wound healing model. In the absence of in vivo pilot data of our designed HDPs, the sample size was calculated based on a previous study. […]
All mice were randomly allocated to each of the four treatment groups (n = 4 mice/group). […] Corneal epithelial defect was assessed using a cobalt-blue filter-equipped slit-lamp biomicroscopy and photography with staining with topical sodium fluorescein 1% at baseline (immediately post-debridement) and daily up to 3 days post-treatment. Fluorescein-stained images of the corneal wound defect were analyzed using ImageJ software (https://imagej.nih.gov/ij/)[68]. The main outcome measure was the wound size at the end of day 1, 2 and 3 [expressed as % of the original wound size in mean and standard deviation (SD)]. […]

[13] = system: MSSA; assay type: cell-based, Staphylococcus aureus
Text: as §3, §4

[14] = system: MRSA; assay type: cell-based, Staphylococcus aureus
Text: as §3, §4

[15] = system: S. aureus ATCC 29213; assay type: cell-based, Staphylococcus aureus; settings: ATCC 29213, 24 h
Text: as §3, §4

[16] = system: MRSA ATCC 43300; assay type: cell-based, Staphylococcus aureus; settings: ATCC 43300, 24 h
Text: as §3, §4

[17] = system: S. epidermidis ATCC 12228; assay type: cell-based, Staphylococcus epidermidis; settings: ATCC 12228, 24 h
Text: as §3
In vitro antimicrobial efficacy of the antibiotics and designed HDPs was determined using an established MIC assay with broth microdilution method approved by the Clinical and Laboratory Standards Institute (CLSI)[64]. Briefly, the microorganisms were cultured on Tryptone Soya Agar (TSA) and incubated overnight for 18–21 h at 37 °C. Bacterial inoculums were subsequently prepared using the direct colony suspension method. Three to five bacterial colonies were obtained from the agar plate and inoculated into an Eppendorf tube containing 1 ml of cation-adjusted Muller-Hinton broth (caMHB), consisting of 20–25 mg/L calcium ions (Ca^2+) and 10–12.5 mg/L magnesium ions (Mg^2+). […]

Question: What does the source list for `NCC[C@H](O)C(=O)N[C@@H]1C[C@H](N)[C@@H](O[C@H]2O[C@H](CN)[C@@H](O)[C@H](O)[C@H]2O)[C@H](O)[C@H]1O[C@H]1O[C@H](CO)[C@@H](O)[C@H](N)[C@H]1O` [Amikacin, amikacin, reference compound]?
Answer: IC50 [1]: > 200 µg/mL; HC50 (concentration causing 50% hemolysis) [2]: > 200 µg/mL; hemolysis at 1 h, 200 µg/ml ([3]; fresh human erythrocytes (4% v/v), human erythrocytes, 200 µg/ml, 1 h, mean (SD), read-out: Hmax (%): percentage of hemolysis at 200 µg/ml): 0%; MIC ([4]; 0 mM NaCl): 1.25 µg/mL and 2.13 µM; MIC ([4]; 150 mM NaCl): 2.5 µg/mL and 4.27 µM; MIC ([5]; 150 mM NaCl, caMHB): 10 µg/mL; MIC ([5]; 150 mM NaCl, caMHB, read-out: MIC): 17.1 µM; MIC ([5]; Staphylococcus aureus, MRSA, 0 mM NaCl, caMHB, read-out: MIC): 10 µg/mL and 17.1 µM; Lmax (%): percentage of cytotoxicity at 200 µg/ml [6]: 0.0 (0.1) %; CC50 at 3 h [7]: > 200 µg/mL; MIC ([8]; Pseudomonas aeruginosa, 0 mM NaCl, caMHB, read-out: MIC): 0.63 µg/mL and 1.08 µM; MIC ([8]; Pseudomonas aeruginosa, 150 mM NaCl, caMHB, read-out: MIC): 1.25 µg/mL and 2.13 µM; MIC ([9]; 0 mM NaCl): 0.63 µg/mL and 1.08 µM; MIC ([9]; 150 mM NaCl): 1.25 µg/mL and 2.13 µM; Increase in the MIC after the 2nd passage ([10]; 2nd passage): fourfold; Increase in the MIC after the 10th passage ([10]; 10 consecutive passages (days)): 32 fold; Development of AMR after 10 consecutive passages ([10]; AMR defined as ≥ fourfold increase in MIC vs baseline): developed significant AMR; Bacterial re-growth at 24 h time-point ([11]; CaD23 25 μg/ml, amikacin 10 μg/ml and 25 μg/ml): no evidence of bacterial re-growth; Time to complete killing ([11]; amikacin 20 μg/ml (8× MIC), caMHB with 150 mM NaCl): ≤ 4 h; Speed of killing relative to CaD23 (times slower) ([11]; amikacin 25 μg/ml (20× MIC) vs CaD23 25 μg/ml (2× MIC)): 8 times; Time to complete killing ([11]; amikacin 8× MIC (10 μg/ml), caMHB): ≤ 4 h

Question: What does the source list for `CC[C@H](C)[C@H](NC(=O)[C@H](CCCNC(=N)N)NC(=O)[C@H](CCC(N)=O)NC(=O)[C@@H](NC(=O)[C@@H](NC(=O)[C@H](CCCNC(=N)N)NC(=O)[C@@H](N)CCCCN)[C@@H](C)CC)C(C)C)C(=O)N[C@@H](CCCCN)C(=O)N[C@@H](CC(=O)O)C(=O)N[C@@H](Cc1c[nH]c2ccccc12)C(=O)N[C@@H](CC(C)C)C(=O)N[C@@H](CCCNC(=N)N)C(=O)N[C@@H](CCCCN)C(=O)N[C@@H](CC(C)C)C(=O)N[C@@H](CS)C(=O)N[C@@H](CCCCN)C(=O)N[C@@H](CCCCN)C(=O)N[C@@H](Cc1c[nH]c2ccccc12)C(=O)O` [CaD23, KRIVQRIKDW LRKLCKKW] (H-KRIVQRIKDWLRKLCKKW-OH; N-terminus and C-terminus assumed)?
Answer: hemolysis at 1 h, 200 µg/ml ([3]; Hmax (%): percentage of hemolysis at 200 µg/ml): < 10%; MIC ([5]; -OS): 100 µg/mL; CC50 at 3 h [7]: > 200 µg/mL; MIC ([8]; PA-OS): 50 µg/mL (≈ 20.9 µM); Mean wound size (% of original wound size) [12]: 28.5 ± 19.9%; MIC [13]: 12.5 to 25.0 µg/mL; MIC [14]: 25 µg/mL (≈ 10.4 µM); MIC [15]: 50 µg/mL (≈ 20.9 µM); MIC [16]: 100 µg/mL (≈ 41.7 µM); MIC [17]: 5.2 µM (≈ 12.5 µg/mL)
